Laboratory results: patent US11908550B2, “Method for determining different PBDEs derivatives from their response to activities of enoyl-ACP reductase” (Nanjing University, priority 2020, dated 2024)
Entries after “also recorded” stand apart in the source; their conditions may differ.

Target: T1, enoyl-ACP reductase (recombinant FabI) (Escherichia coli, UniProt P0AEK4)
T1 construct: His; made in house; host or cells: E. coli
Assay: in vitro binding activity assay (FabI enzyme activity, oxidation rate of NADH to NAD+ at 340 nm)
Assay type: biochemical, E. coli
Details: PBDEs 0.014-10 μM incubated with 100 nM recombinant FabI on ice for 60 minutes
Method: The in vitro binding activity assay was as follows: overexpression of His-labeled FabI in the E. coli lysate was prepared. When the bacterial optical density (OD600) reached 0.6, the expression was induced overnight with 1 mm IPTG at 16° C. Then, the bacteria were collected and washed once with PBS. The bacteria were lysed in the lysis buffer containing 500 mM NaCl, 10 mm Tris HCl and 0.1% NP-40 (pH=8.5). FabI was purified from the supernatant with Ni-NTA agarose (Qiagen) and centrifuged at 14000 g for 30 min. The resin containing Ni-NTA was transferred to a Poly-Prep column (Bio-Red) and equilibrated twice with washing buffer (50 mm PBS, pH 8.2, 300 mM NaCl and 10 mm imidazole). After incubation with FabI lysate at 4° C. for 30 minutes, the resin was washed twice with a washing buffer, and the FabI protein was eluted with a buffer containing 50 mm PBS, pH 8.2, 300 mM NaCl and 250 mm imidazole. 300 μM butyl coenzyme A was added and followed by adding the mixture of 100 nM recombinant FabI, 400 μM NADH and 40 μM NAD+. The oxidation rate of NADH to NAD+ was measured every 2 minutes with a microplate reader at 340 nm. In order to determine the inhibition ability of PBDEs derivatives to the FabI enzyme activity, PBDEs with different concentrations (0.014-10 μM) were incubated with 100 nM recombinant FabI on ice for 60 minutes, and then the oxidation rate of NADH to NAD+ was determined.

T1 sequence (P0AEK4 whole entry): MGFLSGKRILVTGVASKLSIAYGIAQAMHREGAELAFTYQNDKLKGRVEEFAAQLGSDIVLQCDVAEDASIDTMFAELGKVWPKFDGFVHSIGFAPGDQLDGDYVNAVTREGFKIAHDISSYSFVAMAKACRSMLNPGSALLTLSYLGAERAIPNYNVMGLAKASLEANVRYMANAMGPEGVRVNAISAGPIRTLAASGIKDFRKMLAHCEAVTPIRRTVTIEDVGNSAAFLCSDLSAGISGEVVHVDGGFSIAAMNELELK

**Q.** For `Oc1c(Oc2ccc(Br)cc2Br)cc(Br)c(Br)c1Br` [2OHBDE123], which “in vitro measurement of the binding activity” value (“in vitro measurement” below) is on record?
**A.** Its value is “No inhibition; also recorded: No inhibit”.

**Q.** Which “in vitro measurement” value does the source give for `COc1ccc(Oc2ccc(Br)cc2Br)c(Br)c1` [4MeOBDE17] here?
**A.** The value was “No inhibition; also recorded: No inhibit”.

**Q.** For `Oc1cc(Br)c(Oc2ccc(Br)cc2Br)cc1Br` [4OHBDE49], which “in vitro measurement” value is on record?
**A.** Its value is “able to inhibit; also recorded: inhibition”.

**Q.** For `COc1cc(Oc2ccc(Br)cc2Br)c(Br)cc1Br` [5MeOBDE47], which “in vitro measurement” value is on record?
**A.** Its value is “No inhibition; also recorded: No inhibit”.

**Q.** Which “in vitro measurement” value does the source give for `COc1cc(Br)cc(Br)c1Oc1ccccc1Br` [6MeOBDE17] here?
**A.** Its value is “No inhibition; also recorded: No inhibit”.

**Q.** `COc1cc(Br)cc(Br)c1Oc1ccc(Br)cc1Br` [6MeOBDE47] was tested. Which “in vitro measurement” value did it give?
**A.** Its value is “No inhibition; also recorded: No inhibit”.

**Q.** With `COc1cc(Br)c(Br)c(Br)c1Oc1ccc(Br)cc1Br` [6MeOBDE85] as the compound, how does the “in vitro measurement” value read?
**A.** The value was “No inhibition; also recorded: No inhibit”.

**Q.** `COc1c(Br)cc(Br)c(Br)c1Oc1ccc(Br)cc1Br` [6MeOBDE90] was tested. Which “in vitro measurement” value did it give?
**A.** The value was “No inhibition; also recorded: No inhibit”.

**Q.** Which “in vitro measurement” value does the source give for `Oc1cc(Br)cc(Br)c1Oc1ccccc1Br` [6OHBDE17] here?
**A.** The value was “Inhibit”.

**Q.** `Oc1cc(Br)cc(Br)c1Oc1ccc(Br)cc1Br` [6OHBDE47] was tested. Which “in vitro measurement” value did it give?
**A.** Its value is “Inhibit”.

**Q.** For `Oc1c(Br)cc(Br)c(Br)c1Oc1ccc(Br)cc1Br` [6OHBDE90], which “in vitro measurement” value is on record?
**A.** Its value is “Inhibit”.

**Q.** How did the “in vitro measurement” value turn out when `Oc1c(Br)c(Br)c(Br)c(Br)c1Oc1ccc(Br)cc1Br` [6OHBDE137] was run?
**A.** The value was “Inhibit”.

**Q.** With `Oc1cc(Cl)ccc1Oc1ccc(Cl)cc1Cl` [TCS, Triclosan, reference compound] as the compound, how does the “in vitro measurement” value read?
**A.** The value was “Inhibit”.
